Assay results: patent publication US20020115663A1, “Novel compounds” (priority 2000, published 2002)

Target: Human PTP1B (Homo sapiens, UniProt P18031)
Details: 2 mM, control wells
Protocol: Human PTP1B (amino acid residues 1-298, cloned from a human placental library), without the GST tag and thrombin cleavage site, was inserted into a pMB replicon and transformed into E. coli BL21 (DE3), a strain containing a chromosomal copy of the gene for T7 RNA polymerase under control of a lacUV5 promoter. Expression of PTP1B was induced with isopropyl thiogalactose and cells were lysed in lysis buffer comprising 50 mM Tris-HCl pH 7.5, 10% glycerol, 1 mM EDTA, 3 mM DTT, 3 mM MgCl2, and 0.2 mg/ml lysozyme with 1 mg/ml DNAse I. The soluble protein was purified by ion exchange, hydrophobic interaction and gel exclusion chromatography for use in assays to identify PTP1B inhibitors. […] Recombinant proteins were stored at −70° C. until used.
Human PTP1B activity was measured using p-nitrophenol phosphate (pNPP) as substrate in a 96-well microtiter plate format. An assay pH of 7.2 is used for standard assays (measured extinction coefficient =9800 at pH 7.2).
Standard assays were conducted at room temperature in a total volume of 0.2 ml that contains Hepes buffer (50 mM, pH 7.2), NaCl (50 mM), EDTA (1 mM), DTT (1 mM), bovine serum albumin (1 mg/ml), pNPP (1.25 mM) and PTP1B (500 ng/ml, 13.5 nM). […] The OD^405 was subsequently measured. […]

Human PTP1B, sequence (P18031 1-298): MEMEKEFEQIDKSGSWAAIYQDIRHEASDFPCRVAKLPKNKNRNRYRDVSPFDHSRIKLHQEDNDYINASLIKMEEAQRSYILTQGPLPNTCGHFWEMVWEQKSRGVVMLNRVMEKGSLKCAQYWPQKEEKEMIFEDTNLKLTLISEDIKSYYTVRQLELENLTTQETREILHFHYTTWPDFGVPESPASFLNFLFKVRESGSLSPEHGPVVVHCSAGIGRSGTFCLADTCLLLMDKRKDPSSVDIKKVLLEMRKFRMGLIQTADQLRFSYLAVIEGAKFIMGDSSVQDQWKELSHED

[Na+].[Na+].[Na+].[O]=[V]([O-])([O-])[O-] [sodium orthovanadate]
inhibition of PTP1B-catalyzed hydrolysis of pNPP: completely
